Results: DBAASP
≈ marks a conversion by molar mass, not a printed value.

Tests used:
Assay in all cases: ≥ marks a high value that may be exact or a test limit, other limits are often not marked, values filed in µg/mL are converted to µM
[1] = tested on: Acinetobacter baumannii
[2] = tested on: Staphylococcus aureus ATCC 25923
[3] = tested on: Klebsiella pneumoniae ATCC 700603
[4] = tested on: Escherichia coli ATCC 25922
[5] = tested on: Pseudomonas aeruginosa ATCC 9027
[6] = tested on: Candida albicans ATCC 2002
[7] = tested on: Staphylococcus aureus ATCC 2592
[8] = tested on: Bacillus subtilis
[9] = tested on: Escherichia coli B
[10] = tested on: Bacillus subtilis 168
[11] = tested on: Staphylococcus aureus
[12] = tested on: Pseudomonas aeruginosa
[13] = tested on: Staphylococcus aureus ATCC 29213
[14] = tested on: Escherichia coli
[15] = tested on: Salmonella enterica subsp. enterica serovar Typhimurium C77-31
[16] = tested on: Staphylococcus epidermidis ATCC 12228
[17] = tested on: Escherichia coli UB1005
[18] = tested on: Pseudomonas aeruginosa CMCCB 10104

Structure (SMILES) | MIC [1] [µM] | MIC [2] [µM] | MIC [4] [µM] | MIC [6] [µM] | MIC [7] [µM] | MIC [11] [µM] | MIC [12] [µM] | also measured
CC[C@H](C)[C@H](NC(=O)[C@H](Cc1ccccc1)NC(=O)[C@H](CO)NC(=O)[C@H](CCCCN)NC(=O)[C@H](CC(C)C)NC(=O)[C@H](CCCCN)NC(=O)[C@H](CCCCN)NC(=O)[C@H](CC(C)C)NC(=O)[C@@H](NC(=O)[C@@H](NC(=O)[C@@H](N)Cc1ccccc1)[C@@H](C)O)[C@@H](C)CC)C(=O)N[C@@H](CCCCN)C(=O)O [FTILKKLKSFIK] | ≥ 64 | > 64 | > 64 |  |  |  |  | MIC [3]: > 64 µM; MIC [5]: 32 µM (≈ 46.9 µg/mL)
CC[C@H](C)[C@H](NC(=O)[C@H](CCCCN)NC(=O)[C@H](CCCCN)NC(=O)[C@H](Cc1c[nH]c2ccccc12)NC(=O)[C@H](CC(N)=O)NC(=O)[C@@H](N)C(C)C)C(=O)N[C@@H](CC(C)C)C(=O)N1CCC[C@H]1C(=O)N[C@@H](CCCCN)C(=O)N[C@H](C(=O)N[C@H](C(=O)N[C@@H](CCCCN)C(=O)N[C@H](C(=O)N[C@@H](C)C(=O)N[C@@H](CCCCN)C(N)=O)C(C)C)[C@@H](C)CC)[C@@H](C)CC [VNWKKILPKIIKVAK] |  |  |  |  |  | 80 (≈ 142 µg/mL) | 100 (≈ 178 µg/mL) | MIC [9]: 2.5 µM (≈ 4.44 µg/mL); MIC [10]: 0.7 µM (≈ 1.24 µg/mL)
CC[C@H](C)[C@H](N)C(=O)N1CCC[C@H]1C(=O)N[C@@H](CC(C)C)C(=O)N[C@@H](CC(C)C)C(=O)N[C@@H](CCCN=C(N)N)C(=O)N[C@@H](CCCCN)C(=O)NCC(=O)N[C@@H](CCCCN)C(=O)N[C@@H](CCCCN)C(=O)N[C@H](C(=O)N[C@H](C(=O)N[C@@H](Cc1c[nH]c2ccccc12)C(=O)N[C@@H](Cc1c[nH]c2ccccc12)C(=O)O)[C@@H](C)CC)[C@@H](C)CC [IPLLRKGKKIIWW] | ≥ 64 | > 64 | > 64 |  |  |  |  | MIC [3]: > 64 µM; MIC [5]: 64 µM (≈ 106 µg/mL)
CC[C@H](C)[C@H](NC(=O)[C@H](CCC(N)=O)NC(=O)[C@H](CCCCN)NC(=O)CNC(=O)[C@H](CC(C)C)NC(=O)[C@H](CCC(N)=O)NC(=O)[C@@H]1CCCN1C(=O)[C@H](CC(C)C)NC(=O)[C@H](CCCCN)NC(=O)[C@H](C)NC(=O)[C@H](CCC(=O)O)NC(=O)[C@H](CCCCN)NC(=O)[C@@H](NC(=O)[C@H](CCSC)NC(=O)[C@@H](NC(=O)[C@@H](NC(=O)[C@@H](NC(=O)[C@@H](N)CO)[C@@H](C)CC)[C@@H](C)CC)[C@@H](C)O)[C@@H](C)O)C(=O)N[C@@H](C)C(=O)N[C@H]1CSSC[C@@H](C(=O)O)NC(=O)[C@H]([C@@H](C)O)NC(=O)[C@H](CC(N)=O)NC(=O)[C@H](Cc2ccc(O)cc2)NC(=O)[C@H](CC(C)C)NC(=O)[C@H](CCCN=C(N)N)NC1=O [SIITMTKEAKLPQLGKQIACRLYNTC] |  |  | 41 (≈ 120 µg/mL) | 20.5 (≈ 60 µg/mL) | 10.3 (≈ 30 µg/mL) |  |  | MIC [8]: ≥ 41 µM
CC[C@H](C)[C@H](NC(=O)[C@H](CCCCN)NC(=O)[C@H](C)NC(=O)[C@H](CC(C)C)NC(=O)[C@@H](NC(=O)[C@H](CCCCN)NC(=O)[C@H](CCCCN)NC(=O)[C@H](Cc1c[nH]c2ccccc12)NC(=O)[C@H](CC(N)=O)NC(=O)[C@@H](N)C(C)C)C(C)C)C(=O)N[C@H](C(=O)N[C@@H](CCCCN)C(=O)N[C@H](C(=O)N[C@@H](C)C(=O)N[C@@H](CCCCN)C(N)=O)C(C)C)[C@@H](C)CC [VNWKKVLAKIIKVAK] |  |  |  |  |  | 7.2 (≈ 12.5 µg/mL) | 26.9 (≈ 46.7 µg/mL) | MIC [9]: 0.7 µM (≈ 1.22 µg/mL); MIC [10]: 0.6 µM (≈ 1.04 µg/mL)
CC[C@H](C)[C@H](NC(=O)[C@@H]1CCCN1C(=O)[C@@H](NC(=O)[C@@H](N)C(C)C)[C@@H](C)CC)C(=O)N[C@H](C(=O)N[C@@H](CO)C(=O)NCC(=O)N[C@@H](CC(C)C)C(=O)N[C@@H](CC(C)C)C(=O)N[C@@H](CO)C(=O)N[C@@H](CO)C(=O)N[C@@H](CC(C)C)C(=O)N[C@@H](CC(C)C)C(N)=O)C(C)C [VIPIVSGLLSSLL] |  |  | 9.54 (≈ 12.5 µg/mL) |  | 4.77 (≈ 6.25 µg/mL) |  |  | 

The remaining molecules from weak to strong by MIC [4], led by results:

MIC [1] [µM] | MIC [2] [µM] | MIC [4] [µM] | MIC [6] [µM] | MIC [7] [µM] | MIC [11] [µM] | MIC [12] [µM] | Structure (SMILES) | also measured
2 (≈ 3.57 µg/mL) | 2 (≈ 3.57 µg/mL) | 4 (≈ 7.14 µg/mL) |  |  | 2 (≈ 3.57 µg/mL) | 8 (≈ 14.3 µg/mL) | CC[C@H](C)[C@H](NC(=O)[C@H](CCCN=C(N)N)NC(=O)[C@H](Cc1c[nH]c2ccccc12)NC(=O)[C@H](CCCN=C(N)N)NC(=O)[C@@H](NC(=O)[C@H](CCCCN)NC(=O)[C@H](Cc1c[nH]c2ccccc12)NC(=O)[C@H](CCCN=C(N)N)NC(=O)[C@@H](NC(=O)[C@H](CCCN=C(N)N)NC(=O)[C@@H](N)Cc1c[nH]c2ccccc12)[C@@H](C)CC)[C@@H](C)O)C(=O)N[C@@H](CCCCN)C(N)=O [WRIRWKTRWRIK] | MIC [13]: 2 µM (≈ 3.57 µg/mL); MIC [14]: 2 µM (≈ 3.57 µg/mL); MIC [15]: 2 µM (≈ 3.57 µg/mL); MIC [16]: 2 µM (≈ 3.57 µg/mL); MIC [17]: 2 µM (≈ 3.57 µg/mL)
 | 3.61 (≈ 12.1 µg/mL) | 3.61 (≈ 12.1 µg/mL) | 3.61 (≈ 12.1 µg/mL) |  |  |  | CC[C@H](C)[C@H](NC(=O)[C@@H](NC(=O)[C@H](CC(=O)O)NC(=O)[C@H](CC(C)C)NC(=O)[C@H](CC(C)C)NC(=O)CN)[C@@H](C)O)C(=O)N[C@@H](CCCCN)C(=O)N[C@@H](CC(N)=O)C(=O)N[C@@H](CCSC)C(=O)N[C@@H](C)C(=O)N[C@@H](CC(C)C)C(=O)N[C@@H](CC(N)=O)C(=O)N[C@@H](C)C(=O)N[C@@H](C)C(=O)N[C@@H](CCCCN)C(=O)N[C@@H](CO)C(=O)N[C@@H](C)C(=O)NCC(=O)N[C@H](C(=O)N[C@@H](CO)C(=O)N[C@H](C(=O)N[C@@H](CC(C)C)C(=O)N[C@@H](CC(N)=O)C(=O)N[C@@H](CO)C(=O)N[C@@H](CC(C)C)C(=O)N[C@@H](CO)C(=O)N[C@H]1CSSC[C@@H](C(=O)O)NC(=O)[C@H]([C@@H](C)O)NC(=O)[C@H](CCCCN)NC(=O)[C@H](CO)NC(=O)[C@H](CC(C)C)NC(=O)[C@H](CCCCN)NC1=O)C(C)C)C(C)C [GLLDTIKNMALNAAKSAGVSVLNSLSCKLSKTC] | MIC [18]: 1.79 µM (≈ 6 µg/mL)
 | 3.59 (≈ 12.1 µg/mL) | 3.59 (≈ 12.1 µg/mL) | 1.78 (≈ 6 µg/mL) |  |  |  | CC[C@H](C)[C@H](NC(=O)CN)C(=O)N[C@@H](CC(C)C)C(=O)N[C@@H](CC(=O)O)C(=O)N[C@H](C(=O)N[C@@H](Cc1ccccc1)C(=O)N[C@@H](CCCCN)C(=O)N[C@@H](CC(N)=O)C(=O)N[C@@H](CCSC)C(=O)N[C@@H](C)C(=O)N[C@@H](CC(C)C)C(=O)N[C@@H](CC(N)=O)C(=O)N[C@@H](C)C(=O)N[C@@H](C)C(=O)N[C@@H](CCCCN)C(=O)N[C@@H](CO)C(=O)N[C@@H](C)C(=O)NCC(=O)N[C@H](C(=O)N[C@@H](CO)C(=O)N[C@H](C(=O)N[C@@H](CC(C)C)C(=O)N[C@@H](CC(N)=O)C(=O)N[C@@H](C)C(=O)N[C@@H](CC(C)C)C(=O)N[C@@H](CO)C(=O)N[C@H]1CSSC[C@@H](C(=O)O)NC(=O)[C@H]([C@@H](C)O)NC(=O)[C@H](CCCCN)NC(=O)[C@H](CO)NC(=O)[C@H](CC(C)C)NC(=O)[C@H](CCCCN)NC1=O)C(C)C)C(C)C)[C@@H](C)O [GILDTFKNMALNAAKSAGVSVLNALSCKLSKTC] | MIC [18]: 3.59 µM (≈ 12.1 µg/mL)
 |  | 1.98 (≈ 6.3 µg/mL) | 3.92 (≈ 12.5 µg/mL) | 1.98 (≈ 6.3 µg/mL) |  |  | CC[C@H](C)[C@@H]1NC(=O)[C@H](CCCCN)NC(=O)[C@@H](NC(=O)[C@H](CCCCN)NC(=O)[C@H](CC(C)C)NC(=O)[C@@H](NC(=O)[C@H](CC(=O)O)NC(=O)[C@H](CC(C)C)NC(=O)[C@H](CC(C)C)NC(=O)[C@H](CCC(N)=O)NC(=O)CNC(=O)[C@H](C)NC(=O)[C@@H](NC(=O)[C@H](CCCCN)NC(=O)[C@H](CCCCN)NC(=O)[C@H](CC(C)C)NC(=O)CNC(=O)[C@H](CCC(=O)O)NC(=O)[C@H](CCCCN)NC(=O)[C@@H](NC(=O)[C@H](CO)NC(=O)[C@H](CC(=O)O)NC(=O)[C@H](CC(C)C)NC(=O)[C@H](CC(C)C)NC(=O)CN)C(C)C)C(C)C)[C@@H](C)O)CSSC[C@@H](C(=O)N[C@H](C(=O)N2CCC[C@H]2C(=O)N[C@@H](C)C(=O)O)[C@@H](C)O)NC(=O)CNC(=O)[C@H](CO)NC1=O [GLLDSVKEGLKKVAGQLLDTLKCKISGCTPA] | MIC [8]: 7.84 µM (≈ 25 µg/mL)
